“And” between values parts separate entries of the source, which are not always exact repeats. Equal entries are not always repeated. Where two headings read alike, the source gives them in different places. One block for each compound: values may come before it.
How the values were obtained:
Hela = test system: Hela; set-up: method as in PMID 25086915; conditions: read-out: IC50 against Hela; cited from earlier work
MCF-7 = test system: MCF-7; set-up: method as in PMID 25086915; conditions: read-out: IC50 against MCF-7; cited from earlier work
[1] = test system: Hepatocellular carcinoma (HePG2); test: Antitumor screening using MTT assay; assay type: cell-based, human; conditions: Homo sapiens
Description: (§3) Hepatocellular carcinoma (HePG2), mammary gland breast cancer (MCF-7), epithelioid carcinoma cervix cancer (Hela), and human prostate cancer were included on the panel (PC3). […] The cell lines were obtained from the American Type Culture Collection (ATCC) through VACSERA, a Cairo-based holding firm for biological goods and vaccines.
(§4) The panel consisted of hepatocellular carcinoma (HePG2), mammary gland breast cancer (MCF-7), epithelioid carcinoma cervix cancer (Hela) and human prostate cancer (PC3). Human lung fibroblast (WI38) was used to assay the cytotoxicity effect on normal cell. The cell lines were obtained from ATCC via Holding company for biological products and vaccines (VACSERA), Cairo, Egypt. The cytotoxic activity was defined as the concentration of the compound that causes 50% growth inhibition compared with the growth of untreated cells.

[2] = In vitro cytotoxicity against human normal cell line (MTT); assay type: cell-based; conditions: human, WI38, read-out: Average of Relative viability of cells (%)
Excerpt: (§1) The anticancer agent's selectivity for cancer cells is a critical consideration for any researcher, as it can decrease the molecule's adverse effects on normal human cells.

[3] = test system: human lung fibroblast (WI38); test: as above; assay type: cell-based; conditions: Homo sapiens, WI-38, human normal cell line WI38; mean ± SD, n = 3
Excerpt: as §1

Hela cells [4] = test: Cell cycle arrest analysis; assay type: cell-based, human
Description: So, compound 8 was assessed its activity on cell cycle distribution and induction of apoptosis in different phases of Hela cells.
(§2) Annexin V-FITC and PI apoptosis kit were used to detect apoptosis (eBioscience™, San Diego, CA, USA). On a six well plate, Mcf cells were plated at a density of 600,000 cells/ml. The cells were treated with compound 8 at […] after 24 h of incubation. The solvent control consisted of cells developed in medium containing an equivalent volume of DMSO. In accordance with the instructions supplied by the Annexin V-FITC and PI apoptosis kit, the cells were stained with an Annexin V-FITC conjugate and propidium iodide (PI) after 24 h. The percentage of apoptotic, necrotic, and alive cells was then calculated. By using a flow cytometer (NovoCyte, ACEA Biosciences Inc, San Diego, CA, US) and the NovoExpress 1.3.0 software (ACEA Biosciences Inc, San Diego, CA, US), the cells' released fluorescence was examined. Each point on the population plot ("dot plot") corresponds to a single event with a particular fluorescence signal in relation to the axes: Annexin V-FITC green fluorescence.
Researcher : Dr.Omar El-Khouly email : dr.kholy93@gmail.com mob. 01278084495
Assay : Cell Cycle Analysis
Kit used : ab139418_Propidium Iodide Flow Cytometry Kit/BD
Assay samples : Cell culture
code IC50 %G0-G1 %S %G2/M %Pre-G1 Comment
(also on this page, place not known: 0 20 40 60 % OE -G12 /Hela Cont. Hela DNA content %G0-G1 %S %G2/M %Pre-G1)
(1 picture or pasted object on this page, not shown here)

Hela cells [5] = test: Detection of apoptosis (Annexin V-FITC/PI); assay type: cell-based, human
Description: In Hela cells, compound 8 induced an early apoptotic effect with 1.79% at 24 h. Also, the enhanced late apoptotic induction with 14.11% by 83-fold compared to the Hela control cell (0.17%). On other hand, necrotic effect in Hela at 24 h was induced by compounds 8 with 8.81% compared to the control cells (1.15%).
as §2

[6] = test system: HePG2, MCF-7, Hela, PC3 cell lines; test: Antitumor screening using MTT assay, statements across several cell lines; assay type: cell-based, human; conditions: Homo sapiens, PC-3; read-out: IC50 range against HePG and PC3 cell lines
Description: as §3, §4

[7] = test system: mammary gland breast cancer (MCF-7); test: Antitumor screening using MTT assay; conditions: Homo sapiens
Description: as §3, §4

[8] = test system: epithelioid carcinoma cervix cancer (Hela); test: Antitumor screening using MTT assay; conditions: Homo sapiens, HeLa
Description: as §3, §4

[9] = test system: human prostate cancer (PC3); test: Antitumor screening using MTT assay; conditions: Homo sapiens
Description: as §3, §4

human PI3Kα = human PI3Kα (Homo sapiens, UniProt P42336); test: Human PI3Kα enzyme inhibition assay (ELISA)
Description: (§5) PI3Kα and VEGFR-2 activity were verified by enzyme-linked immunosorbent assay (ELISA) assay technique. […] Then, the mean absorbance of each group of standard and tested compounds was determined. The standard curve was drawn on log–log paper with the absorbance on the Y-axis and the standard concentration on the X-axis.

human VEGFR-2 = human VEGFR-2 (Homo sapiens, UniProt P35968); test: Human VEGFR-2 enzyme inhibition assay (ELISA)
Description: as §5

VEGFR-2 = conditions: read-out: IC50 against VEGFR-2; cited from earlier work
[10] = MCF7, read-out: Average of Relative viability of cells (%)
[11] = read-out: Average of Relative viability of cells (%)

human PI3Kα, sequence (P42336 whole entry): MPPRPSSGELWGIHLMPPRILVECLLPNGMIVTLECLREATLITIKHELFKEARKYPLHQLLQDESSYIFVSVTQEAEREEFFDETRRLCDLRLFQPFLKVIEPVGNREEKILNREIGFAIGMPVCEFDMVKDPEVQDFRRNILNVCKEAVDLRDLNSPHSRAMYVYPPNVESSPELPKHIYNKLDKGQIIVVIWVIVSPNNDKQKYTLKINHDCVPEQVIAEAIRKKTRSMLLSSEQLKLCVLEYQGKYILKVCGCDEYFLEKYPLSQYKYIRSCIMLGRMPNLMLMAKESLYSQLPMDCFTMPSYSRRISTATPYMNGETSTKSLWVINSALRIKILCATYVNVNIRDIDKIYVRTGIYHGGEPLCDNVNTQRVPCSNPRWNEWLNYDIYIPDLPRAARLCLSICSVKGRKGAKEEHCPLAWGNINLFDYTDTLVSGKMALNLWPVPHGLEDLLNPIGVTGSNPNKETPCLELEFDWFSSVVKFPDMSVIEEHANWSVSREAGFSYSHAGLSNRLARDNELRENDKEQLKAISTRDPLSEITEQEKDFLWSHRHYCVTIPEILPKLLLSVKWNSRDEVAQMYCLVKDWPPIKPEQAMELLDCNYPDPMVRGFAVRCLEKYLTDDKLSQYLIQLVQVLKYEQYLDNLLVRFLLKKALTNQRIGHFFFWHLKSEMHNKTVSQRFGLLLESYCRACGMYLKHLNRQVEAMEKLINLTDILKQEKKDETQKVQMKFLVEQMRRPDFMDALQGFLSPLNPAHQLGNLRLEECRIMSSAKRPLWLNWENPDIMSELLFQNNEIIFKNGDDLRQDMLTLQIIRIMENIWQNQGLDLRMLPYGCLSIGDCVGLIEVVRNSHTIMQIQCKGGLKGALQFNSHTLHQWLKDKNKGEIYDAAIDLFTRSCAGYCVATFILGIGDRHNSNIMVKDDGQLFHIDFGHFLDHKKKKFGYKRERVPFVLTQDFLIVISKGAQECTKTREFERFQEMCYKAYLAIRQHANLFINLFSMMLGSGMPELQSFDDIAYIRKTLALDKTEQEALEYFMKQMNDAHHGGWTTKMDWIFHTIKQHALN
human PI3Kα, sequence (P27986 whole entry partner): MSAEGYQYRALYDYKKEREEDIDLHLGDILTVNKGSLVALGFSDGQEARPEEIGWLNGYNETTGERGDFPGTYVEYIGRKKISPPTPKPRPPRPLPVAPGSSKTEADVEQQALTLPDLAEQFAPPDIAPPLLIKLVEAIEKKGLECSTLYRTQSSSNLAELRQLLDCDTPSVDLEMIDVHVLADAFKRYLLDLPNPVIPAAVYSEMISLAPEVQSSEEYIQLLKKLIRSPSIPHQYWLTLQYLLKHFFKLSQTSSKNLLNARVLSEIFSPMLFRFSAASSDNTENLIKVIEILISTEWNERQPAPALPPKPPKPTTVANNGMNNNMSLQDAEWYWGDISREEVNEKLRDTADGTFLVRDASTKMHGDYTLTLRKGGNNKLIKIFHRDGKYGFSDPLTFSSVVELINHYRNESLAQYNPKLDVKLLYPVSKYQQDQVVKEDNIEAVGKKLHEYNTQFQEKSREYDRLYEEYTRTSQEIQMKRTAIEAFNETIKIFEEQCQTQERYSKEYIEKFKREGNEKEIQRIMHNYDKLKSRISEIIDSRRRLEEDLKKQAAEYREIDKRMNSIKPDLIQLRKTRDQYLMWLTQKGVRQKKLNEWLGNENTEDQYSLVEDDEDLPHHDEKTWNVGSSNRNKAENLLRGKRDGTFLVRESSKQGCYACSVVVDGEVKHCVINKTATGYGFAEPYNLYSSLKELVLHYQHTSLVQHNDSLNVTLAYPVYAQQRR
human VEGFR-2, sequence (P35968 20-1356): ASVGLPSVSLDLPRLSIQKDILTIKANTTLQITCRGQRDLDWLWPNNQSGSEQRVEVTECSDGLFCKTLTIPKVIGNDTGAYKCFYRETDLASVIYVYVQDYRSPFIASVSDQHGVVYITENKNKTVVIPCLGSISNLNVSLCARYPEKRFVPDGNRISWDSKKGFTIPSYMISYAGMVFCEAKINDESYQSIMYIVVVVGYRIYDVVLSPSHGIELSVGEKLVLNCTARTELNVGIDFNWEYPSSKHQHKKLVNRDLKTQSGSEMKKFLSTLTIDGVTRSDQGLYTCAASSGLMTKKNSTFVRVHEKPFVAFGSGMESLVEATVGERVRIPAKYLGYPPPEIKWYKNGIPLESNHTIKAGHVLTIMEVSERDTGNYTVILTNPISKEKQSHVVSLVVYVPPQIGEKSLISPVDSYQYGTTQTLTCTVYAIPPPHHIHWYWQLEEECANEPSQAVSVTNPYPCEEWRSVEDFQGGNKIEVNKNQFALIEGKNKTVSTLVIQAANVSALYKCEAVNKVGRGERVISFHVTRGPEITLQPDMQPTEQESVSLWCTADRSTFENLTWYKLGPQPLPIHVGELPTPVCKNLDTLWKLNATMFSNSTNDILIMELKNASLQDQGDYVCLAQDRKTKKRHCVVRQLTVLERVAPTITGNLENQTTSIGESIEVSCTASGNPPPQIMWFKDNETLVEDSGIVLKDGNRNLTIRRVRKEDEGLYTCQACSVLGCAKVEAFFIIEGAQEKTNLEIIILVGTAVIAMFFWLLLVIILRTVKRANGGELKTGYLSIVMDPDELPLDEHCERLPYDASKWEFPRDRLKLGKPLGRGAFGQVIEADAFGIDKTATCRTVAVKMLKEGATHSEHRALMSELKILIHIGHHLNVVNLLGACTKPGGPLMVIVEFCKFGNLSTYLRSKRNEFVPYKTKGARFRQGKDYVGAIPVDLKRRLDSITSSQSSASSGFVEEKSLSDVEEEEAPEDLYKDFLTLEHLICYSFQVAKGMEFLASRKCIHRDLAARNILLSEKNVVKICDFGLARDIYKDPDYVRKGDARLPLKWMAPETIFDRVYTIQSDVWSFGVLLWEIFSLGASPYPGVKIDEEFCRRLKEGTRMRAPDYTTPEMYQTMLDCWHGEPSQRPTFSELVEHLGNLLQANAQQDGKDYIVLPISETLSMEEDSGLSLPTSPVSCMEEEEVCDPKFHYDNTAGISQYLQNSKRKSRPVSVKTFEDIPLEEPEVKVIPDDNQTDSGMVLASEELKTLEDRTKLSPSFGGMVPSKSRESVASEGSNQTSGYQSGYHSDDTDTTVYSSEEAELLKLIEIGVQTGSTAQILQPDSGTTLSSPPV

SMILES: O=C(CN1CCN(c2nn3c(-c4ccccc4)nnc3c3ccccc23)CC1)Nc1ccc(F)cc1 [Compound VII]
IC50 (Hela): 2000 nM
IC50 (MCF-7): 3400 nM

IC50 [6]: 11000 to 17000 nM
melting point: 207 to 209 °C
IC50 (human PI3Kα; PI3K-α IC50 ng/ml, supplement lab report): 6.43 nM
IC50 (human PI3Kα; PI3Kα enzymatic IC50 (nM), mean of triplicate): 2.21 ± 0.11 nM
PI3K-α %inh (human PI3Kα; conc 0.1 (unit not given)): 22.1%
PI3K-α %inh (human PI3Kα; conc 1 (unit not given)): 42.7%
PI3K-α %inh (human PI3Kα; conc 10 (unit not given)): 67%
PI3K-α %inh (human PI3Kα; conc 100 (unit not given)): 80.7%
IC50 (human VEGFR-2; VEGFR2 IC50 ng/ml, supplement lab report): 250 nM
IC50 (human VEGFR-2; VEGFR-2 enzymatic IC50 (nM), mean of triplicate): 68 nM and 86 nM
vegfr2 %inh (human VEGFR-2; conc 0.01 (unit not given)): 28.7%
vegfr2 %inh (human VEGFR-2; conc 0.1 (unit not given)): 52.7%
vegfr2 %inh (human VEGFR-2; conc 1 (unit not given)): 75.3%
vegfr2 %inh (human VEGFR-2; conc 10 (unit not given)): 90.4%
SMILES: C/C(=N\NC(=S)Nc1ccc(Cl)cc1)c1cc2ccccc2o1 [Compound 8, (E)-2-(1-(benzofuran-2-yl)ethylidene)-N-(4-chlorophenyl)hydrazine-1-carbothioamide]
viability at 1.56 µM ([1]; Conc. 1.56 µM, read-out: Average of Relative viability of cells (%)): 99.5%
viability at 3.125 µM ([1]; Conc. 3.125 µM, read-out: Average of Relative viability of cells (%)): 81.4%
viability at 6.25 µM ([1]; Conc. 6.25 µM, read-out: Average of Relative viability of cells (%)): 67.3%
viability at 12.5 µM ([1]; Conc. 12.5 µM, read-out: Average of Relative viability of cells (%)): 24.9%
viability at 25 µM ([1]; Conc. 25 µM, read-out: Average of Relative viability of cells (%)): 29.1%
viability at 50 µM ([1]; Conc. 50 µM, read-out: Average of Relative viability of cells (%)): 20.8%
viability at 100 µM ([1]; Conc. 100 µM, read-out: Average of Relative viability of cells (%)): 13.2%
IC50 ([1]; mean ± SD, n = 3, read-out: In-vitro cytotoxicity IC50 (µM) HePG2): 9.73 ± 0.7 µM
viability at 3.125 µM ([2]; WI38 human lung fibroblast cells (normal cell line), Conc. 3.125 µM): 100%
viability at 6.25 µM ([2]; WI38 human lung fibroblast cells (normal cell line), Conc. 6.25 µM): 89.3%
viability at 12.5 µM ([2]; WI38 human lung fibroblast cells (normal cell line), Conc. 12.5 µM): 75.6%
viability at 25 µM ([2]; WI38 human lung fibroblast cells (normal cell line), Conc. 25 µM): 62.7%
viability at 50 µM ([2]; WI38 human lung fibroblast cells (normal cell line), Conc. 50 µM): 48.2%
viability at 100 µM ([2]; WI38 human lung fibroblast cells (normal cell line), Conc. 100 µM): 36.4%
viability at 1.56 µM ([2]; WI38 normal lung fibroblast cells, Conc. 1.56 µM): 100%
IC50 [3]: 48200 ± 2800 nM
Cell cycle analysis comment (Hela cells [4]): Pre-G1 apoptosis and cell growth arrest at G1/S phase
Cell cycle distribution (%) %G0–G1 (Hela cells [4]): 47.06%
Cell cycle distribution (%) %G2/M (Hela cells [4]): 1.71%
Cell cycle distribution (%) %S (Hela cells [4]; 24 h): 51.23%
Cell cycle distribution (%) %Pre-G1 (Hela cells [4]; after 48 h exposure): 24.71%
Cell cycle analysis comment (Hela cells [4]; listed as OE-G12): cell growth arrest@G1/S phase
late apoptotic induction (Hela cells [5]): 14.11%
early apoptotic effect (Hela cells [5]; 24 h): 1.79%
necrotic effect (Hela cells [5]; 24 h): 8.81%
late apoptotic induction, fold compared to Hela control cell (Hela cells [5]; control 0.17%): 83 fold
viability at 1.56 µM [7, 10]: 99.1%
viability at 3.125 µM [7, 10]: 79.8%
viability at 6.25 µM [7, 10]: 65.7%
viability at 12.5 µM [7, 10]: 42.9%
viability at 25 µM [7, 10]: 28.3%
viability at 50 µM [7, 10]: 21.2%
viability at 100 µM [7, 10]: 13.7%
IC50 ([7]; MCF7, read-out: In-vitro cytotoxicity IC50 (µM) MCF-7): 11.6 ± 0.9 µM
viability at 1.56 µM [8, 11]: 88.6%
viability at 3.125 µM [8, 11]: 76.1%
viability at 6.25 µM [8, 11]: 53.7%
viability at 12.5 µM [8, 11]: 32.8%
viability at 25 µM [8, 11]: 24.5%
viability at 50 µM [8, 11]: 16%
viability at 100 µM [8, 11]: 8.2%
IC50 ([8]; read-out: In-vitro cytotoxicity IC50 (µM) Hela): 7.94 ± 0.5 µM
viability at 1.56 µM [9, 11]: 100%
viability at 3.125 µM [9, 11]: 93.7%
viability at 6.25 µM [9, 11]: 72.9%
viability at 12.5 µM [9, 11]: 51.6%
viability at 25 µM [9, 11]: 39.2%
viability at 50 µM [9, 11]: 27.1%
viability at 100 µM [9, 11]: 19.3%
IC50 ([9]; read-out: In-vitro cytotoxicity IC50 (µM) PC3): 17.5 ± 1.3 µM

SMILES: COc1c(C(=O)/C=C/c2ccc([N+](=O)[O-])cc2)c(O)cc2occc12 [Compound V]
IC50 (VEGFR-2): 1 nM

Reference: PMC9556824, “Design, synthesis and computational study of new benzofuran hybrids as dual PI3K/VEGFR2 inhibitors targeting cancer” (Scientific Reports, 2022)
